Where two headings read alike, the source gives them in different places.
Experiments:
[1] = biological target: T1, hS1P1R (hEdg1) membrane protein (Homo sapiens, UniProt P21453); assay: hS1P1R GTPγS binding assay (Assay 3a); assay type: biochemical
T1 construct: purchased Lonza
Description: Assay 3a: The hS1P1R GTPγS binding assay was carried out at room temperature in 96 well non-binding surface assay plates. The reaction in each well contained 4 μg hS1P1R (hEdg1) membrane protein (Lonza), 30 μM GDP, 0.1 nM [^35S]GTPγS, 0.25% fatty acid free BSA, and serially diluted hS1P1R agonist compound in 200 μL assay buffer (25 mM Tris-HCl PH 7.9, 100 mM NaCl, 3 mM MgCl2, and 0.2 mM EGTA). After one hour of incubation, 0.9 mg of WGA (Wheat Germ Agglutinin) SPA beads in 50 μL of assay buffer was added to each well. The SPA beads were spun down after an additional one hour incubation. The radioactivity of the bound GTPγS was counted by reading the assay plate using a MicroBeta.

[2] = biological target: T2, hS1PR5 (hEdg8) membrane protein (Homo sapiens, UniProt Q9H228); assay: hS1P5R GTPγS binding assay (Assay 4); assay type: biochemical
T2 construct: expressed in transfected cells; host or cells: CHO
Description: The hS1PR5 GTPγS binding assay was carried out at room temperature in 96-well non-binding surface assay plates. The reaction in each well contained 5 μg hS1PR5 (hEdg8) membrane protein from CHO cells expressing hS1PR5, 30 μM GDP, 0.1 nM [^35S]GTPγS, 0.25% fatty acid free BSA, and serially-diluted Compound of the Invention in 200 μL assay buffer (25 mM Tris-HCl PH 7.9, 100 mM NaCl, 3 mM MgCl2, and 0.2 mM EGTA). After one hour of incubation, 0.9 mg of WGA (Wheat Germ Agglutinin) SPA beads in 50 μL of assay buffer was added to each well. The SPA beads were spun down after an additional one hour incubation. The radioactivity of the bound GTPγS was counted by reading the assay plate using a MicroBeta.

[3] = biological target: T3, S1P3 (Homo sapiens, UniProt Q99500); assay: S1P3 Tango β-arrestin recruitment assay in HEK293 cells (Assay 5); assay type: cell-based
T3 construct: host or cells: HEK293 (transient transfection)
Excerpt: (§1) For the Tango™ β-arrestin recruitment assay, the cytoplasmic C-terminus of S1P1 was tethered to the tTA transcriptional activator with a linker that contains a cleavage site for the N1a protease from tobacco etch virus (TEV protease). The C-terminus of the human β-arrestin2 protein was fused to TEV protease. Binding of an agonist recruits the βl -arrestin-TEV fusion protein to the receptor resulting in cleavage of the linker and released of tTA to enter the nucleus and subsequently activated a tTA-dependent luciferase reporter gene.
Assay 2a: Frozen HEK293 cells transiently transfected with receptor cDNAs for S1P1 (Invitrogen) are thawed and suspended in 10 mL of Pro293a-CDM culture medium (Invitrogen) supplemented with 4 mM L-Glutamine (Invitrogen), 1× Pen/Strep (100 units/mL penicillin and 100 μg/mL streptomycin, Invitrogen) and 0.1% fatty acid free BSA (Sigma-Aldrich). Cells are added to the wells of a 384-well white opaque bottom assay plate (PerkinElmer) at 3,000-6,000 cells per well and the plate is incubated for approximately 4 h in a 37° C. incubator. Test compounds are tested at maximum concentrations of 10 μM for the agonist assays. Compounds are diluted in DMSO (10 concentration points, 3-fold each) and added to the assay plate at a 1% final DMSO concentration. For each compound, there are duplicate assay plates and each assay plate has duplicate wells per concentration point. The plate is incubated at 37° C. for 30 min. The efficacy control is 5 μM S1P (Avanti). Following agonist addition, the assay plates are incubated in a 37° C. incubator for 16-18 h. Luciferase assay reagent is added and luminescence measured in an EnVision plate reader (PerkinElmer). To determine agonist activity, percent activity is calculated as [(test compound−background)/(positive control−background)*100], where background is the luminescence of the DMSO alone control and the positive control is the luminescence from cells incubated with the efficacy control 5 μM S1P. The percent activities are plotted against compound concentration to determine EC50 using XLFit (IDBS).
This assay was conducted using the procedures described in Assay 2a, replacing S1P1 with S1P3.

[4] = biological target: T4, S1P1 (Homo sapiens, UniProt P21453); assay: Tango β-arrestin recruitment assay in U2OS cells (Assay 2b); assay type: cell-based
T4 construct: host or cells: U2OS
Excerpt: as §1
Assay 2b: Alternatively, U2OS cells expressing the reporter gene and S1P1 (Invitrogen) were added to the wells of a 384-well white opaque bottom assay plate (PerkinElmer) at […]. The cells were serum starved for 48 h in Freestyle medium (Invitrogen). Test compounds were tested at maximum concentrations of 1 μM for the agonist assay. Compounds were diluted in DMSO (10 concentration points, 3-fold each) and added to the assay plate at a 1% final DMSO concentration. The efficacy control was 1 μM S1P (Avanti). For each compound, there were duplicate assay plates and each assay plate had duplicate wells per concentration point. The plate was incubated overnight at 37° C. The GeneBLAzer β-lactamase assay reagent (Invitrogen) was added and the plates were incubated for an additional 2 h at room temperature. Fluorescence was measured using an EnVision plate reader (PerkinElmer, Waltham, Mass.) at an excitation wavelength of 409 nm and emission wavelengths of 460 nm and 530 nm. The emission intensity at each wavelength was background subtracted against wells containing medium only and the F460 nm/F530 nm ratio determined for each concentration of the test compounds. Percent activity was calculated as [(test compound ratio−DMSO ratio)/(positive control ratio−DMSO ratio)*100], where the positive control and DMSO ratios are from cells incubated with the efficacy control 1 μM S1P and 1% DMSO, respectively. The percent activities were plotted against compound concentration to determine EC50 using XLFit (IDBS).

[5] = * = rEC50 measured rather than EC50, read-out: Assay 5 rEC50 (relative EC50, cells marked *)

T3 sequence (P32121 whole entry): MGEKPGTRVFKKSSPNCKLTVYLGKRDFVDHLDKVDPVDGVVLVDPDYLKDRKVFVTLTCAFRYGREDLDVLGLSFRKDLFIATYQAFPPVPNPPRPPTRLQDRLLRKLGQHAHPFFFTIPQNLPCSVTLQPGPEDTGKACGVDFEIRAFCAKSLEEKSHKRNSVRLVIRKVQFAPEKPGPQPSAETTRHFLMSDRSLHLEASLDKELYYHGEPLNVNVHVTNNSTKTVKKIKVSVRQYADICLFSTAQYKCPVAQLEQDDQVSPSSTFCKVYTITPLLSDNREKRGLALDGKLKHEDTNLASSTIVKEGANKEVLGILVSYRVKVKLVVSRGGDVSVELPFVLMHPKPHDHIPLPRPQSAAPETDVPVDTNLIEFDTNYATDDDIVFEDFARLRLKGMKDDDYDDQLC
T3 sequence (Q99500 whole entry): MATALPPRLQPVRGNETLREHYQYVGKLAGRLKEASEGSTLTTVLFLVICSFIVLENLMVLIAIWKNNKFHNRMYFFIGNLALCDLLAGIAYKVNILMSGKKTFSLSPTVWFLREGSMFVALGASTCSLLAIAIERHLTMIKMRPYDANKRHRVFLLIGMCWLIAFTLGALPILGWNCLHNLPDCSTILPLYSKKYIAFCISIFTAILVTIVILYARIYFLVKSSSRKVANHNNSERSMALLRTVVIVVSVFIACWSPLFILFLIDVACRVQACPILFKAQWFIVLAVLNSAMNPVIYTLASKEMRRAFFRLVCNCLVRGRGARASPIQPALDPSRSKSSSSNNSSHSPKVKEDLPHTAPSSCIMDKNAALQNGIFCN
T4 sequence (P32121 whole entry): as the sequence (P32121 whole entry) above
T4 sequence (P21453 whole entry): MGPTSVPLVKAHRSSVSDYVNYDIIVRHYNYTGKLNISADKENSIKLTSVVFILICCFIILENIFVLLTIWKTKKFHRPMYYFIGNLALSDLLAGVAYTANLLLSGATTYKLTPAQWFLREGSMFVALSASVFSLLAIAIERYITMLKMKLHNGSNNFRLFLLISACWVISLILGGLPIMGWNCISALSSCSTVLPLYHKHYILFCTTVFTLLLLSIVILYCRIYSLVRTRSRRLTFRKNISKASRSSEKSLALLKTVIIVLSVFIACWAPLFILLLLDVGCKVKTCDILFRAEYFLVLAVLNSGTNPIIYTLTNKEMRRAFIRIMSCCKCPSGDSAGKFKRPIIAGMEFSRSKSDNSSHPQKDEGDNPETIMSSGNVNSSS
T2 sequence (Q9H228 whole entry): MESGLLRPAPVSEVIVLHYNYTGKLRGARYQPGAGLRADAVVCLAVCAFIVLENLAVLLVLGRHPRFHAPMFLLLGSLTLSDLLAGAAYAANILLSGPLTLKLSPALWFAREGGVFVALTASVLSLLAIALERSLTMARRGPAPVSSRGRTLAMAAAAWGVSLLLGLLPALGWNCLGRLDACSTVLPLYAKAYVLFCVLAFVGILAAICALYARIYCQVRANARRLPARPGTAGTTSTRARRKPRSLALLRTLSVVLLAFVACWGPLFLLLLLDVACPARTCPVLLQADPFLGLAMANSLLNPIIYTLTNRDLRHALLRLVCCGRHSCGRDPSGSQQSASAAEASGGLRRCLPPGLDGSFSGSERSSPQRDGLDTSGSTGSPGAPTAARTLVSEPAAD
T1 sequence (P21453 whole entry): as the sequence (P21453 whole entry) above

SMILES	EC50 [1] [nM]	EC50 [2] [nM]	EC50 ([3]; read-out: Assay 5 EC50) [nM]	EC50 ([4]; read-out: Assay 2b EC50) [nM]	EC50 [3, 5] [nM]	EC50 ([4]; * = rEC50 measured rather than EC50, read-out: Assay 2b rEC50 (relative EC50, cells marked *)) [nM]
CC(C)Cc1ccc(-c2nnc(-c3cc(F)c(OC[C@H](N)CO)cc3Cl)s2)cc1 [Entry 3, (2R)-2-amino-3-[(5-chloro-2-fluoro-4-{5-[4-(2-methylpropyl)phenyl]-1,3,4-thiadiazol-2-yl}phenyl)oxy]propan-1-ol]	250 to 2800	250 to 2800	> 10000	50 to 250	–	–
CC(C)N(C)c1cc(-c2nnc(-c3cc(F)c(OCC(N)CO)cc3Cl)s2)cc(Cl)n1 (centres unmarked) [Entry 5, 2-amino-3-{[5-chloro-4-(5-{2-chloro-6-[methyl(1-methylethyl)amino]pyridin-4-yl}-1,3,4-thiadiazol-2-yl)-2-fluorophenyl]oxy}propan-1-ol]	10 to 50	250 to 2800	≤ 250	≤ 10	–	–
CC(C)Oc1ncc(-c2nnc(-c3cc(F)c(OCC(N)CO)cc3Cl)s2)cc1Cl (centres unmarked) [Entry 6, 2-amino-3-{[5-chloro-4-(5-{5-chloro-6-[(1-methylethyl)oxy]pyridin-3-yl}-1,3,4-thiadiazol-2-yl)-2-fluorophenyl]oxy}propan-1-ol]	10 to 50	250 to 2800	≤ 250	≤ 10	–	–
CC(C)Oc1ccc(-c2nnc(-c3cc(F)c(OC[C@@H](N)CO)cc3Cl)s2)cc1Cl [Entry 10, (2S)-2-amino-3-{[5-chloro-4-(5-{3-chloro-4-[(1-methylethyl)oxy]phenyl}-1,3,4-thiadiazol-2-yl)-2-fluorophenyl]oxy}propan-1-ol]	≤ 10	10 to 50	≤ 250	≤ 10	–	–
CC(C)Oc1ccc(-c2nnc(-c3cc(F)c(OC[C@@H](N)CO)cc3Cl)s2)cc1Br [Entry 11, (2S)-2-amino-3-{[4-(5-{3-bromo-4-[(1-methylethyl)oxy]phenyl}-1,3,4-thiadiazol-2-yl)-5-chloro-2-fluorophenyl]oxy}propan-1-ol]	≤ 10	10 to 50	≤ 250	≤ 10	–	–
CC(C)Oc1ccc(-c2nnc(-c3cc(F)c(OC[C@@H](N)COP(=O)(O)O)cc3Cl)s2)cc1Br [Entry 12, (2R)-2-amino-3-{[4-(5-{3-bromo-4-[(1-methylethyl)oxy]phenyl}-1,3,4-thiadiazol-2-yl)-5-chloro-2-fluorophenyl]oxy}propyl dihydrogen phosphate]	≤ 10	≤ 10	–	≤ 10	≤ 250	–
CC(C)Oc1ccc(-c2nnc(-c3cc(F)c(OC[C@H](N)COP(=O)(O)O)cc3Cl)s2)cc1Cl [Entry 13, (2S)-2-amino-3-{[5-chloro-4-(5-{3-chloro-4-[(1-methylethyl)oxy]phenyl}-1,3,4-thiadiazol-2-yl)-2-fluorophenyl]oxy}propyl dihydrogen phosphate]	≤ 10	≤ 10	≤ 250	≤ 10	–	–

The remaining lines, values ahead:

EC50 [1] [nM]	EC50 [2] [nM]	EC50 ([3]; read-out: Assay 5 EC50) [nM]	EC50 ([4]; read-out: Assay 2b EC50) [nM]	EC50 [3, 5] [nM]	EC50 ([4]; * = rEC50 measured rather than EC50, read-out: Assay 2b rEC50 (relative EC50, cells marked *)) [nM]	SMILES
250 to 2800	250 to 2800	> 10000	10 to 50	–	–	N[C@H](CO)COc1cc(Cl)c(-c2nnc(-c3cccc(Cl)c3)s2)cc1F [Entry 15, (2R)-2-amino-3-({5-chloro-4-[5-(3-chlorophenyl)-1,3,4-thiadiazol-2-yl]-2-fluorophenyl}oxy)propan-1-ol]
≤ 10	10 to 50	–	≤ 10	≤ 250	–	CC(C)Oc1ccc(-c2nnc(-c3cc(F)c(OC[C@@H](N)COP(=O)(O)O)cc3Cl)s2)cc1Cl [Entry 16, (2R)-2-amino-3-{[5-chloro-4-(5-{3-chloro-4-[(1-methylethyl)oxy]phenyl}-1,3,4-thiadiazol-2-yl)-2-fluorophenyl]oxy}propyl dihydrogen phosphate]
10 to 50	50 to 250	> 10000	50 to 250	–	–	CCCOc1ccc(-c2nnc(-c3cc(F)c(OC[C@H](N)CO)cc3Cl)s2)cc1Cl [Entry 17, (2R)-2-amino-3-[(5-chloro-4-{5-[3-chloro-4-(propyloxy)phenyl]-1,3,4-thiadiazol-2-yl}-2-fluorophenyl)oxy]propan-1-ol]
≤ 10	10 to 50	> 10000	10 to 50	–	–	CC(C)Oc1ccc(-c2nnc(-c3cc(F)c(OC[C@H](N)CO)cc3Cl)s2)cc1C(F)(F)F [Entry 18, (2R)-2-amino-3-{[5-chloro-2-fluoro-4-(5-{4-[(1-methylethyl)oxy]-3-(trifluoromethyl)phenyl}-1,3,4-thiadiazol-2-yl)phenyl]oxy}propan-1-ol]
250 to 2800	–	≤ 250	≤ 10	–	–	CC(C)N(C)c1ccc(-c2nnc(-c3cc(F)c(OCC(N)CO)cc3Cl)s2)cn1 (centres unmarked) [Entry 36, 2-amino-3-{[5-chloro-2-fluoro-4-(5-{6-[methyl(1-methylethyl)amino]pyridin-3-yl}-1,3,4-thiadiazol-2-yl)phenyl]oxy}propan-1-ol]
250 to 2800	–	> 10000	250 to 2800	–	–	N[C@H](CO)COc1cc(Cl)c(-c2nnc(-c3cc(Cl)cc(Cl)c3)s2)cc1F [Entry 92, (2R)-2-amino-3-({5-chloro-4-[5-(3,5-dichlorophenyl)-1,3,4-thiadiazol-2-yl]-2-fluorophenyl}oxy)propan-1-ol]
–	≤ 10	> 250	–	–	≤ 10	Cc1cc(-c2nnc(-c3cc(F)c(OC[C@H](N)[C@H](C)OP(=O)(O)O)cc3Cl)s2)ccc1OC(C)C [Entry 104, (1S,2S)-2-amino-3-{[5-chloro-2-fluoro-4-(5-{3-methyl-4-[(1-methylethyl)oxy]phenyl}-1,3,4-thiadiazol-2-yl)phenyl]oxy}-1-methylpropyl dihydrogen phosphate]
–	50 to 250	> 250	50 to 250	–	–	Cc1nc(-c2nnc(-c3cc(F)c(OC[C@H](N)[C@H](C)O)cc3Cl)s2)ccc1NC(C)C [Entry 105, (2S,3S)-3-amino-4-(5-chloro-2-fluoro-4-{5-[6-methyl-5-(propan-2-ylamino)pyridin-2-yl]-1,3,4-thiadiazol-2-yl}phenoxy)butan-2-ol]
–	50 to 250	> 250	50 to 250	–	–	Cc1cc(NC(C)C)cc(-c2nnc(-c3cc(F)c(OC[C@H](N)[C@H](C)O)cc3Cl)s2)n1 [Entry 106, (2S,3S)-3-amino-4-(5-chloro-2-fluoro-4-{5-[6-methyl-4-(propan-2-ylamino)pyridin-2-yl]-1,3,4-thiadiazol-2-yl}phenoxy)butan-2-ol]
